Data: US6989435B2, “Compounds and methods to inhibit or augment an inflammatory response” (Cambridge University Technical Services Ltd., priority 1997, dated 2006)

Legend:
[1] = system: TGFβ1 induced human monocyte migration; assay: Human monocyte migration, TGFβ1 induced; type: cell-based
Protocol: (§1) Agents may also be screened in a chemotactic assay which employs human neutrophils, eosinophils, mast cells, basophils, platelets, lymphocytes or monocytes. For monocytes, 9 mls of fresh blood are transferred to a tube containing 1 ml of 3.8% sodium citrate, and left at room temperature for 15 minutes. Five mls of this anti-coagulated blood are carefully layered over 3.5 ml Polymorphprep® (Nycomed Pharma, Oslo), and centrifuged at 500 g for 35 minutes per the manufacturer's instructions. The top band at the sample/medium interface contains monocytes. The monocytes are carefully removed with a glass pipette, and reconstituted to the original volume (5 ml). The cells are washed with PBS plus 10% fetal calf serum, and centrifuged at 400 g for 10 minutes. The washing step is repeated three times before the cells are counted. Cells are resuspended at 1×10^7 cells/ml in RPMI-1640+10% fetal calf serum (FCS). The monocytes are cultured for two days at 37° C. in a humidified atmosphere of 5% CO2.
(§2) On day 2, the cells are counted, spun down, and reconstituted to 1×10^7 cells/ml in Gey's balanced salt solution+1 mg/ml bovine serum albumin (BSA). […]

[2] = system: chemokine-induced migration of peripheral blood monocytes; assay: Chemokine-induced migration of freshly prepared peripheral blood monocytes, each of the four chemokines; type: cell-based, human; details: 100 μM; peripheral blood monocytes from 3 donors
Protocol: as §1, §2

[3] = system: cultured smooth muscle cells; assay: Co-mitogenic effect of MCP-1 with 0.5% fetal calf serum; type: cell-based; details: 100 μM peptide
Protocol: Many chemokines are co-mitogenic with low concentrations of FCS, e.g., 50 ng/ml MCP-1+0.5% FCS is a mitogen for smooth muscle cells. Assays well known to the art for determination of DNA synthesis induced by any known chemokine plus a low concentration (<5%) of FCS on suitable cells (e.g., smooth muscle cells) in the presence and absence of the agent may be employed to screen agents for such inhibitory activity. See Porreca et al., J. Vasc. Res., 34, 58 (1997), the disclosure of which is incorporated by reference herein.
Peptide 3(1-12)[MCP-1] […] MCP-1 has been reported to be a weak co-mitogen with 0.5% fetal calf serum for cultured smooth muscle cells. […] (SEQ ID NO:1) is an MCP-1 receptor antagonist. The observation that peptide 3(1-12) [MCP-1]

T-tropic HIV isolate = assay: HIV infection of Jurkat cells, reverse transcriptase assay of culture medium; type: cell-based; details: 100 μM peptide; 3 weeks in culture
Protocol: Peptides were added on day 0, one hour prior to infection of the cells with HIV isolate. The full length chemokine SDF-1α was used as a positive control.
(SEQ ID NO:1), or (iv) 100 ng/ml SDF-1, which should bind to and block all CXCR-4 receptors. After 3 weeks in culture, viral replication was assessed by a reverse transcriptase assay of the culture medium. Peptide 3(1-12)[MCP-1]
Since peptide 2(1-15)[MCP1] […] (SEQ ID NO:3) binds and inhibits an epitope used by HIV for cell entry but not by MCP-1 for signaling. To test this hypothesis, the same HIV infection assay described above was employed to test whether peptide 2(1-15)[MCP-1] (SEQ ID NO:3) inhibits HIV infection of Jurkat cells. At 100 μM, peptide 2(1-15)[MCP-1]

[4] = target: T1, Duffy Antigen Receptor for Chemokines (DARC) (Homo sapiens, UniProt Q16570); assay: DARC binding: competition with 125I-labeled MCP-1 on red blood cells
T1 sequence (Q16570 1-336): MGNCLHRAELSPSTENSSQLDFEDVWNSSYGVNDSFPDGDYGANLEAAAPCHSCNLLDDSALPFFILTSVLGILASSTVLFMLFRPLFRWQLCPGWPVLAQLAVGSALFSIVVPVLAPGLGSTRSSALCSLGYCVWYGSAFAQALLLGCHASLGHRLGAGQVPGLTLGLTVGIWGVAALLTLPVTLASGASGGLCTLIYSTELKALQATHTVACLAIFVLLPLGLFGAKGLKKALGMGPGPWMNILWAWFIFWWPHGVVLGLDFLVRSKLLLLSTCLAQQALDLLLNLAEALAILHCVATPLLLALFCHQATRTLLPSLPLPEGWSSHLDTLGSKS

Sequence: EICADPKQKWVQ [Peptide 3]
- effect on TGF-beta induced monocyte migration ([1]; 100 μM): did not affect
- Extent of inhibition of human monocyte migration at 100 μM, TGFβ1 ([1]; Table 4(c), 100 μM peptide, n.s. = no statistically significant inhibition): n.s.
- inhibition of monocyte migration induced with each of the four chemokines [2]: > 95%
- effect on the co-mitogenic effect of MCP-1 for cultured smooth muscle cells [3]: completely abolished
- inhibition of Jurkat cell infection by HIV (T-tropic HIV isolate): effective inhibitor
- DARC binding, in words [4]: low μM concentration range
- DUFFY SELECTIVITY ([4]; Table 7, estimated ka for binding to red blood cells divided by average inhibitory ED50 versus each of the chemokines): 1.00
